Laboratory results taken from patent publication EP3177293B1, “METHOD OF TREATING SKIN CONDITIONS” (Astrazeneca AB, priority 2014, dated 2015).
Like-named read-outs stand apart in the source and are kept apart here.

What was measured:
[1] = tested on: sebaceous glands
Protocol: Up to 8 (4 male and 4 female) beagle dogs per treatment group were obtained from the AstraZeneca breeding unit (Alderley Park, Macclesfield, UK). […] All animals were observed daily for clinical signs of toxicity. Body weight and food consumption was measured daily prior to dosing. Animals were single-penned, with access to an exercise area with others of the same sex and group, for the major part of each day. Animals had free access to water from the site drinking water supply. A set weight of SDS Dog-D3 (E) SQC, supplied by Special Diet Services Ltd, England, was provided daily, in the afternoon, access being allowed for up to approximately 2 hours. Toys (e.g., bones) were provided for additional environmental enhancement. Animals were terminated for scheduled necropsy on the day after the final dose. The dogs were killed by intravenous administration of sodium pentobarbitone and then exsanguinated.
(§1) For pharmacokinetic analysis, blood samples were collected into lithium heparin tubes from animals on either the first or penultimate day of the study. Plasma was separated by centrifugation at 4°C and stored for analysis at -20°C. […] Exposure data are presented as FDM (free drug concentration in blood plasma required to inhibit the microsomal DGAT1 enzyme by 50%) and are mean data for each dose level. […] At the end of each experiment, animals were terminally anaesthetised and representative samples of skin (mammary gland region for mice, abdominal region for dogs) were taken at necropsy, placed in 10% buffered formalin and processed for histopathological assessment. Conventional processing into wax and haematoxylin and eosin staining of sections preceded their light microscopic examination.
(§2) Light microscopic examination and histology scoring was performed by a certified pathologist and findings were peer reviewed by a second pathologist. Each section of skin contained from 15 - 25 hair follicles in different stages of differentiation with associated sebaceous glands that were cut in multiple planes. […] Therefore, assessment of sebaceous cell/gland atrophy was based on their appearances irrespective of the stage of differentiation of the associated hair follicle in all instances.

[2] = biological target: T1, human DGAT2 (Homo sapiens, UniProt Q96PD7); assay: DGAT2 activity; assay type: biochemical
T1 sequence (Q96PD7 1-388): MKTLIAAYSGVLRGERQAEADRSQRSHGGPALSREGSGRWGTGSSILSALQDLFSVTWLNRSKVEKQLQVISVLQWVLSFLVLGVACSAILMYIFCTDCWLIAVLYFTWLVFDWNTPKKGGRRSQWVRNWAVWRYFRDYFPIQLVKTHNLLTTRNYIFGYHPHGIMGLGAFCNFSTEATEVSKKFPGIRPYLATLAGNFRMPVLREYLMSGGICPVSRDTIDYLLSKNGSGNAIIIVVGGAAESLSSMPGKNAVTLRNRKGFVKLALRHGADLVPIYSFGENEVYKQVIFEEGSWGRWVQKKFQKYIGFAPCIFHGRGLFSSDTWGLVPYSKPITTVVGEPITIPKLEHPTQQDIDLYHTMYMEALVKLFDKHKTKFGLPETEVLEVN

[3] = biological target: T2, human DGAT1 (Homo sapiens, UniProt O75907); assay: in vitro recombinant DGAT1 enzyme assay (human); assay type: biochemical
T2 sequence (O75907 1-488): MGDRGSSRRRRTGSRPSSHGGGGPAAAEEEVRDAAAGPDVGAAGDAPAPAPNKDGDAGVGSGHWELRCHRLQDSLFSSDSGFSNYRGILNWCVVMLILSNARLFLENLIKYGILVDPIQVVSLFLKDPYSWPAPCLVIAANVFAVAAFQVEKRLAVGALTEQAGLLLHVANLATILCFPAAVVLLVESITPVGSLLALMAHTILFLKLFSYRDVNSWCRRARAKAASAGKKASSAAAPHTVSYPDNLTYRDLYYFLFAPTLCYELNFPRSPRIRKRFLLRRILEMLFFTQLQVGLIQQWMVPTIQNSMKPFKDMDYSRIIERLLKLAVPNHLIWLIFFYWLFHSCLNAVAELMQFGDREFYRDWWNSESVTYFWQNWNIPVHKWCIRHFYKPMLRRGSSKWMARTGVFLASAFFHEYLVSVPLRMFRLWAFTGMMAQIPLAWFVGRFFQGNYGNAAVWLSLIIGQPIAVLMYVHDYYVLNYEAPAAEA

[4] = biological target: T3, dog DGAT1 (Canis lupus familiaris, UniProt A0A8I3NFS1); assay: in vitro recombinant DGAT1 enzyme assay (dog); assay type: biochemical
T3 sequence (A0A8I3NFS1 67-492): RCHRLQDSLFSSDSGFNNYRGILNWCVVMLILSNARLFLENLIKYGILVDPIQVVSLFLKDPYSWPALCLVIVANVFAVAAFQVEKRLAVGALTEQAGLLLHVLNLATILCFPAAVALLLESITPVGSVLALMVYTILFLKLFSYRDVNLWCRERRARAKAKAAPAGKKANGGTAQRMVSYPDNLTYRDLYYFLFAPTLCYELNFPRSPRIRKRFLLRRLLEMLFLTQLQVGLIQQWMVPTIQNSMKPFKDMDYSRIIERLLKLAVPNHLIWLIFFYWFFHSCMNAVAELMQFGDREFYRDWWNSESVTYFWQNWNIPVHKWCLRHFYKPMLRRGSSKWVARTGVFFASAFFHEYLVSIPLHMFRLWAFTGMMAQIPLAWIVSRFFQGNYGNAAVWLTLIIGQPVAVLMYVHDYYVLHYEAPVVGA

[5] = toxicokinetic analysis of plasma exposure in mice, oral dosing; assay type: in vivo, mice (Crl:CD-1(ICR)); conditions: for Cmax as multiple of mouse microsomal DGAT1 enzyme IC50 / Cmin as multiple of DGAT1 IC50: oral once daily
Description: (§3) Doses and frequency of dosing were selected following consideration of species specific tolerability and pharmacokinetic parameters. Doses predicted to result in exposures which were likely to cause maximum DGAT1 inhibition without resulting in intolerability were chosen as the highest dose level.
The mice were killed by administration of halothane.

[6] = toxicokinetic analysis of plasma exposure in dogs, oral dosing; assay type: in vivo, beagle dogs
Description: as §3

[7] = biological target: T4, human ACAT2 (Homo sapiens, UniProt O75908); assay: ACAT2 enzyme inhibition; assay type: biochemical
T4 sequence (O75908 1-522): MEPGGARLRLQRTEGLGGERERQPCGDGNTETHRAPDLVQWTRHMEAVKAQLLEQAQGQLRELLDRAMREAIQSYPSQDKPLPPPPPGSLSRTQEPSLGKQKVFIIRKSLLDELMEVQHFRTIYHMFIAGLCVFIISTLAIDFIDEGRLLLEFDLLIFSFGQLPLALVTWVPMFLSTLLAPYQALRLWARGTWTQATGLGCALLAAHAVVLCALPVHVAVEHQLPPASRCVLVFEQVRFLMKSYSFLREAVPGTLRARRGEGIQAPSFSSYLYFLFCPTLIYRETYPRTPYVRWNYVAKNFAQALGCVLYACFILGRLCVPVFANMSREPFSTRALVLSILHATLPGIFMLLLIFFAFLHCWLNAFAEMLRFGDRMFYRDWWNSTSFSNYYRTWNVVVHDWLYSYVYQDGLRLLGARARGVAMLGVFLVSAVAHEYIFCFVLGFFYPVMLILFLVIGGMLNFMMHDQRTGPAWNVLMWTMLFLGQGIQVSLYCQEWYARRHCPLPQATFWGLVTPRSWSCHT

[8] = biological target: T5, mouse DGAT1 (Mus musculus, UniProt Q9Z2A7); assay: in vitro recombinant DGAT1 enzyme assay (mouse); assay type: biochemical
T5 sequence (Q9Z2A7 1-498): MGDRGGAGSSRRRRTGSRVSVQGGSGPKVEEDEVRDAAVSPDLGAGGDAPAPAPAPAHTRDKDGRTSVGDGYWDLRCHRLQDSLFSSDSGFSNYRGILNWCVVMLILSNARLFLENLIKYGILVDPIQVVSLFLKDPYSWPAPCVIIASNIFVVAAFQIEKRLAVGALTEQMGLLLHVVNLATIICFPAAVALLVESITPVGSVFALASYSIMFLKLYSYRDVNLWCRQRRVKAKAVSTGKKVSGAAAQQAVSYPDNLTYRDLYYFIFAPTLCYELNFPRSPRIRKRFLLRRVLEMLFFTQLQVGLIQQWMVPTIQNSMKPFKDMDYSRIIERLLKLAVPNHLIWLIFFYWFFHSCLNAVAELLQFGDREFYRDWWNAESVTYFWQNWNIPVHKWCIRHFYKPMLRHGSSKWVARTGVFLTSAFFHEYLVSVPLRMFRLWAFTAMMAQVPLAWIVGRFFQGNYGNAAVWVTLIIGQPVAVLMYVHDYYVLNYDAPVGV

[9] = tested on: skin; conditions: clinical trials of short duration (Denison et al. 2013); cited from earlier work
[10] = tested on: sebaceous glands; remark: listed apart in the source
Description: Up to 32 (16 male and 16 female) mice (Crl:CD-1(ICR)) per dose group were obtained from the AstraZeneca breeding unit (Alderley Park, Macclesfield, UK). The animals, aged 7-8 weeks, were allowed to acclimatise for at least one week, were multiple-housed, sexes separately, up to 5/cage. Water from the site drinking water supply and RM1 (E) SQC pelleted diet supplied by Special Diets Services Ltd., England, was freely available. Nesting material (Tapvei Aspen Chips, Tapvei small aspen bricks, Finland, sizzle nests and paper shavings, and polycarbonate tunnels, Datesand,UK) was provided. Animals were terminated for scheduled necropsy on the day after the final dose. The mice were killed by administration of halothane.
as §1, §2

[11] = 1mg/kg/day dose group, 180 day study
[12] = 600 mg/kg/day dose group, 7 day study
[13] = mouse, 1 month and 6 month studies

Cc1nc(C)c(-c2ccc([C@H]3CC[C@H](CC(=O)O)CC3)cc2)nc1C(N)=O [2-((1R,4R)-4-(4-(6-carbamoyl-3,5-dimethylpyrazin-2-yl)phenyl)cyclohexyl)acetic acid]
duration of DGAT1 inhibition required for microscopical detection of sebaceous gland atrophy ([1]; dog): more than 7 days | exposure at Cmin with mild to moderate sebaceous gland atrophy ([1]; dog): > 36 x FDM | exposure at Cmin with minimal to mild sebaceous gland atrophy ([1]; dog): 7-54 x FDM | skin photomicrograph appearance of sebaceous glands (Figure 6 B) ([1]; dog, 100 mg/kg/day for 6 months): atrophic sebaceous glands which contain little sebum | additional skin changes (occasional hair follicle atrophy, hair-loss and skin lesions) ([1]; dog, in vivo): not observed | hyperkeratosis of the epithelium covering the infundibula of hair follicles ([1]; dog, in vivo): minimal hyperkeratosis | significant increase in inflammation in the skin ([1]; dog, in vivo): not seen | tolerability ([1]; dog, in vivo): well tolerated | sebaceous gland atrophy ([1]; dogs dosed for up to 7 days): absent | reversibility of sebaceous gland atrophy ([1]; dogs, 4 week drug-free period after 3 months of dosing): complete reversibility | group mean severity of sebaceous gland atrophy ([1]; dogs, after 3 months (90 days) of dosing): minimal to moderate | group mean severity of sebaceous gland atrophy ([1]; dogs, after 14 days of dosing): minimal to mild | group mean severity of sebaceous gland atrophy ([1]; dogs, highest dose group after 6 months (180 days)): moderate | activity against human DGAT2 [2]: No activity | IC50 [3]: ~80 nM | IC50 [4]: ~60 nM | Cmax as multiple of mouse microsomal DGAT1 enzyme IC50 [5, 11]: 4 x IC50 | Cmin as multiple of DGAT1 IC50 [5, 11]: 1 x IC50 | Cmax as multiple of mouse microsomal DGAT1 enzyme IC50 [5, 12]: 1581 x IC50 | Cmin as multiple of DGAT1 IC50 [5, 12]: 766 x IC50 | sex difference in exposure ([5]; male versus female mice): 1.5 - 3 x | Cmax as multiple of dog microsomal DGAT1 enzyme IC50 ([6]; 4 mg/kg/day dose group, 3 month study): 10 x IC50 | Cmin as multiple of DGAT1 IC50 ([6]; 4 mg/kg/day dose group, 3 months study): 1 x IC50 | Cmin as multiple of DGAT1 IC50 ([6]; 1000 mg/kg/day dose group, 7 day study): 54 x IC50 | Cmax as multiple of dog microsomal DGAT1 enzyme IC50 ([6]; 1000 mg/kg/day dose group, 'in the same study' (3 month study as printed)): 292 x IC50 | IC50 [7]: > 35000 nM | IC50 [8]: ~100 nM | effects on the skin of healthy volunteers [9]: no effects | exposure at Cmin at which additional skin findings occurred ([10]; Crl:CD-1(ICR), mouse, in vivo, 6 months): ≥ 7 x FDM | skin photomicrograph appearance of sebaceous glands (Figure 5 B) ([10]; male mouse, 300 mg/kg/day for 6 months): substantial atrophy of sebaceous glands with much reduced sebum and mild hyperkeratosis | reversibility of sebaceous gland atrophy ([10]; mice, 4 week drug-free period after 1 month of treatment): complete reversibility | group mean severity of sebaceous gland atrophy ([10]; mice, after 1 month (28 days) of dosing): minimal to mild | group mean severity of sebaceous gland atrophy ([10]; mice, after 6 months (180 days) of dosing): minimal to moderate | sebaceous gland atrophy ([10]; mice, high doses for up to 7 days): absent | duration of DGAT1 inhibition required for microscopical detection of sebaceous gland atrophy ([10]; mouse): more than 7 days | skin photomicrograph appearance of sebaceous glands (Figure 1 B) ([10]; mouse, 300 mg/kg/day for 28 days): severely atrophic sebaceous glands with substantially reduced sebum | skin photomicrograph appearance of sebaceous glands (Figure 1 C) ([10]; mouse, 300 mg/kg/day for 28 days followed by drug free recovery period of 28 days): normal appearance of sebum filled sebaceous glands | exposure at Cmin with mild to moderate sebaceous gland atrophy [10, 13]: 46 x FDM | exposure at Cmin with minimal to mild sebaceous gland atrophy [10, 13]: 7 - 40 x FDM | exposure at Cmax at which additional skin findings occurred ([10]; mouse, in vivo): at least 50 x FDM | histopathological findings in the skin ([10]; mouse, in vivo): restricted to sebaceous gland atrophy only | significant increase in inflammation in the skin ([10]; mouse, in vivo): not seen | skin findings associated with sebaceous gland atrophy ([10]; mouse, in vivo): epidermal hyperplasia, occasional hair follicle atrophy, as well as in-life observation of hair-loss and skin lesions | tolerability ([10]; mouse, in vivo): well tolerated
